For 18 compounds, IC50 and inhibition results are on record in ChEMBL document CHEMBL3997794, “Design and synthesis of benzodiazepine analogs as isoform-selective human lysine deacetylase inhibitors” (Eur J Med Chem, 2017).

Each structure is given as a SMILES string. pIC50: −log10 of the molar value.

The target of one assay is T1, Histone deacetylase 8 (Homo sapiens, UniProt Q9BY41).
T1 sequence (Q9BY41 whole entry): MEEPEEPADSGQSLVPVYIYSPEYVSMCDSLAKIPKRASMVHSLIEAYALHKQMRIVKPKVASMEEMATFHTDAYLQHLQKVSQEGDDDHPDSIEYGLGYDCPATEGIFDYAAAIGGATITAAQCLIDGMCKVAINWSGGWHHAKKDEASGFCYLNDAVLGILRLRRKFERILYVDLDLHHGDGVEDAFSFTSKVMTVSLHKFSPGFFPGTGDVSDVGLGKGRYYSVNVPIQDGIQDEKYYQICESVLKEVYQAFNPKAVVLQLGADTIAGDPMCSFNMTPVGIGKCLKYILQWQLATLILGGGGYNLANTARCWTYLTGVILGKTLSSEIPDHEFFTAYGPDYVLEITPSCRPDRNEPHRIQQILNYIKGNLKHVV
The assay is described as follows: Inhibition of human KDAC8 after 60 mins by fluorescence assay.

Assay [1] addresses T2, Protein deacetylase HDAC6 (Homo sapiens, UniProt Q9UBN7).
T2 sequence (Q9UBN7 whole entry): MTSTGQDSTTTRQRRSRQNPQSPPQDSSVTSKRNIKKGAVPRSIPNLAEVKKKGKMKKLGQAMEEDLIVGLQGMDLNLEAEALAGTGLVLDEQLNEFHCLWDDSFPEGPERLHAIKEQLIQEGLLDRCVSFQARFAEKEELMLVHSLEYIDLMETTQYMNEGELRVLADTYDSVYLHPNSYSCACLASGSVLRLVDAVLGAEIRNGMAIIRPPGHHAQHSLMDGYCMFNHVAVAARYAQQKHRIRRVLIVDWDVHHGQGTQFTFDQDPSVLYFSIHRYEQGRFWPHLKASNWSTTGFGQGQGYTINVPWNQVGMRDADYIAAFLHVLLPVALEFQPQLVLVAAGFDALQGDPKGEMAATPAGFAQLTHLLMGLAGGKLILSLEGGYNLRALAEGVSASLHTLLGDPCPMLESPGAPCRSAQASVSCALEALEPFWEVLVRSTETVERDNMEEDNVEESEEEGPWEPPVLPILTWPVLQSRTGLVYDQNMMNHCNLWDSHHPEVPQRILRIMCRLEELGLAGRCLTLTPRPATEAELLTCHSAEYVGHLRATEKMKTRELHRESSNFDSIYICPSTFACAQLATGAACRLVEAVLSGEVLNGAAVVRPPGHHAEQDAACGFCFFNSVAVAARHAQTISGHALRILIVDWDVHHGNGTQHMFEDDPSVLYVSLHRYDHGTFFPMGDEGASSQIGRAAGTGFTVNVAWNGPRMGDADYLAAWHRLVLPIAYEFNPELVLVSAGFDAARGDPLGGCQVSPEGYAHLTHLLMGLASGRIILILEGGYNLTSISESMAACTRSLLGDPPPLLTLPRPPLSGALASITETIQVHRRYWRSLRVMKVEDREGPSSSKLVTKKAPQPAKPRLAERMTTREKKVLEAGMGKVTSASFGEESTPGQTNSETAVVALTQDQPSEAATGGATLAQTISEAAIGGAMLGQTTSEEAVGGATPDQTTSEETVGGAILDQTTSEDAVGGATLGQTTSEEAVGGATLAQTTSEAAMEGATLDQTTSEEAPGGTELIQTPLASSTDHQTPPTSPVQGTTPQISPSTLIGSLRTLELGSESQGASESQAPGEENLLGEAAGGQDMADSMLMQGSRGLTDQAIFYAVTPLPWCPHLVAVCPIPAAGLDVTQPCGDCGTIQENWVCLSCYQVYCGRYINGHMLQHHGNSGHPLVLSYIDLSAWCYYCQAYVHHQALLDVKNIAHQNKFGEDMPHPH
The assay is described as follows: Inhibition of human KDAC6 using FITC-labeled histone H4 acetylated peptide as substrate after 60 mins by fluorescence assay.

Assay [2] deals with T3, Histone deacetylase 3 (Homo sapiens, UniProt O15379). The assay is described as follows: Inhibition of human KDAC3 using FITC-labeled p53 acetylated peptide as substrate after 60 mins by fluorescence assay.
T3 sequence (O15379 whole entry): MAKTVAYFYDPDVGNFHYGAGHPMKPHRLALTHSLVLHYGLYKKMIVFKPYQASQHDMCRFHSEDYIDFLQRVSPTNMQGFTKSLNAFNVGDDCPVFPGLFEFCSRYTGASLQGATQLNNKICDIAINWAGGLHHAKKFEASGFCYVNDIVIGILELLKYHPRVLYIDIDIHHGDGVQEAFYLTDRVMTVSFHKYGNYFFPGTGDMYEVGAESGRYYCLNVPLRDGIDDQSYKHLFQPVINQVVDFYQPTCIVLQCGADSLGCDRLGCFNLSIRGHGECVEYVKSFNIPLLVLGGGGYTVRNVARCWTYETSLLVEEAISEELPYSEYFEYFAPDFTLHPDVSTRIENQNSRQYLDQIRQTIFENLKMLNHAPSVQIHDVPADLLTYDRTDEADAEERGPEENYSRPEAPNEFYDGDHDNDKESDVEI
Assay [3] addresses T4, Histone deacetylase 1 (Homo sapiens, UniProt Q13547). Description: Inhibition of human KDAC1 using substrate A after 60 mins by fluorescence assay.
Assay [4] deals with T5, Histone deacetylase 8 (Homo sapiens) (UniProt Q9BY41).
T5 sequence (whole entry): T1 sequence (Q9BY41 whole entry)
Description: Inhibition of human KDAC8 at 30 uM after 60 mins by fluorescence assay relative to control.

Assay [5] deals with T3, Histone deacetylase 3. Description: Inhibition of human KDAC3 at 30 uM using FITC-labeled p53 acetylated peptide as substrate after 60 mins by fluorescence assay relative to control.
For assay [6], the target named is T4, Histone deacetylase 1. The assay is described as follows: Inhibition of human KDAC1 at 30 uM using substrate A after 60 mins by fluorescence assay relative to control.
The target of assay [7] is T6, Protein deacetylase HDAC6 (Homo sapiens) (UniProt Q9UBN7).
T6 sequence (whole entry): T2 sequence (Q9UBN7 whole entry)
To be noted: at 30 µM.
Description: Inhibition of human KDAC6 at 30 uM using FITC-labeled histone H4 acetylated peptide as substrate after 60 mins by fluorescence assay relative to control

T4 sequence (Q13547 whole entry): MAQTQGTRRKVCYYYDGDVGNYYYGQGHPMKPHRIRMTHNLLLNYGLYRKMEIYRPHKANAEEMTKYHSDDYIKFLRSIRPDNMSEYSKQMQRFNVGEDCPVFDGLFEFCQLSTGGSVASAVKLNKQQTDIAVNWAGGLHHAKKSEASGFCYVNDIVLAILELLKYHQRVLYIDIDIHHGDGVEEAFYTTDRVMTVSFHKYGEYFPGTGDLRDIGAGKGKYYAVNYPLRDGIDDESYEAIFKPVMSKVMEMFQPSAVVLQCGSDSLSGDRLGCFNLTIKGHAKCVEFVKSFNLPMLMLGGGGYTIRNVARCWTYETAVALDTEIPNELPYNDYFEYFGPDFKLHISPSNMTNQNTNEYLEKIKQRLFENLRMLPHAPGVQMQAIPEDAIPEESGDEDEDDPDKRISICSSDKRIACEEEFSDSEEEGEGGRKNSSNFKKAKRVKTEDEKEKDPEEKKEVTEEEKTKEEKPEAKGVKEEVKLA

For orientation: pIC50 means −log10 of the IC50, conventionally taken in molar units. Low values mean a large IC50, high ones a small IC50. One may read the inhibition as how much of the control response was suppressed. High values mean a strong effect, low ones a weak effect. `CC(C)(C)OC[C@@H]1N=C(c2ccccc2)c2ccccc2N(CCCCC(=O)O)C1=O`: the pIC50 (against Histone deacetylase 8; in assay [1]; on Histone deacetylase 3 [2]; on Histone deacetylase 1 [3]) was < 4.52 throughout. Further, the inhibition in assay [4] amounted to 5.87%; on Histone deacetylase 3 [5], 0%; at Histone deacetylase 1 [6], 3.74%; in assay [7] it was 0%.

For `O=C(O)C[C@@H]1N=C(c2ccccc2)c2ccccc2N(CCCCC(=O)NO)C1=O`, the pIC50 on Histone deacetylase 8 is < 4.52; in assay [1] it was 4.70; at Histone deacetylase 3 [2] it was 4.90; against Histone deacetylase 1 [3] it was < 4.52. Moreover, the inhibition was 39.4% in assay [4], 75.5% against Histone deacetylase 3 [5], 47.9% against Histone deacetylase 1 [6] and 57.8% in assay [7].

Regarding `CC(C)(C)OC(=O)n1cc(C[C@@H]2N=C(c3ccccc3)c3ccccc3NC2=O)c2ccccc21`, the pIC50 (against Histone deacetylase 8; in assay [1]; against Histone deacetylase 3 [2]; on Histone deacetylase 1 [3]) was < 4.52 in each case. For the same compound, the inhibition in assay [4] turned out to be 0%; against Histone deacetylase 3 [5] it was 1.32%; at Histone deacetylase 1 [6] it was 6.47%; in assay [7], 0%.

With `CC(C)(C)SC[C@H]1N=C(c2ccccc2)c2ccccc2N(CCCCC(=O)O)C1=O`, the pIC50 (against Histone deacetylase 8; in assay [1]; against Histone deacetylase 3 [2]; on Histone deacetylase 1 [3]) was < 4.52 in each case. Further, the inhibition in assay [4] worked out at 8.31%; against Histone deacetylase 3 [5], 0%; on Histone deacetylase 1 [6], 12.1%; in assay [7], 2.08%.

Regarding `O=C1Nc2ccccc2C(c2ccccc2)=N[C@H]1Cc1cn(C(c2ccccc2)(c2ccccc2)c2ccccc2)cn1`, the pIC50 (against Histone deacetylase 8; in assay [1]; on Histone deacetylase 3 [2]; at Histone deacetylase 1 [3]) was < 4.52 in each case. Moreover, the inhibition in assay [4] was 13.4%; against Histone deacetylase 3 [5] it was 0%; on Histone deacetylase 1 [6] it was 8.26%; in assay [7], 12.3%.

In the case of `CSCC[C@@H]1N=C(c2ccccc2)c2ccccc2N(CCCCC(=O)NO)C1=O`, the pIC50 was 4.69 against Histone deacetylase 8, 5.77 in assay [1], 6.37 against Histone deacetylase 3 [2] and 5.19 against Histone deacetylase 1 [3]. Besides, the inhibition stood at 57.7% in assay [4], 98.9% on Histone deacetylase 3 [5], 81.6% against Histone deacetylase 1 [6] and 93.1% in assay [7].

Regarding `CC(C)(C)OC(=O)CC[C@@H]1N=C(c2ccccc2)c2ccccc2N(CCCCC(=O)O)C1=O`, the pIC50 (against Histone deacetylase 8; in assay [1]; on Histone deacetylase 3 [2]; at Histone deacetylase 1 [3]) was < 4.52 in each case. The inhibition in assay [4] turned out to be 9.85%; against Histone deacetylase 3 [5], 23.9%; against Histone deacetylase 1 [6] it was 7.96%; in assay [7], 0%.

As for `O=C(O)C[C@H]1N=C(c2ccccc2)c2ccccc2NC1=O`, the pIC50 (against Histone deacetylase 8; in assay [1]; on Histone deacetylase 3 [2]; on Histone deacetylase 1 [3]) was < 4.52 throughout. The inhibition came out at 0% in assay [4], 0% against Histone deacetylase 3 [5], 0.74% against Histone deacetylase 1 [6] and 0% in assay [7].

As for `O=C(CCCNC(=O)CC[C@@H]1N=C(c2ccccc2)c2ccccc2NC1=O)NO`, the pIC50 at Histone deacetylase 8 was < 4.52; in assay [1], 5.15; at Histone deacetylase 3 [2], 5.29; against Histone deacetylase 1 [3] it was 4.64. The inhibition in assay [4] amounted to 33.6%; against Histone deacetylase 3 [5] it was 87.2%; at Histone deacetylase 1 [6], 55.8%; in assay [7] it was 83.5%.

As for `O=C(O)C[C@@H]1N=C(c2ccccc2)c2ccccc2NC1=O`, the pIC50 (on Histone deacetylase 8; in assay [1]; on Histone deacetylase 3 [2]; against Histone deacetylase 1 [3]) was < 4.52 throughout. Besides, the inhibition in assay [4] stood at 0%; against Histone deacetylase 3 [5] it was 0%; at Histone deacetylase 1 [6] it was 3.13%; in assay [7], 0%.

With `O=C(CCCCN1C(=O)CN=C(c2ccccc2)c2ccccc21)NO`, the pIC50 on Histone deacetylase 8 was 5.17; in assay [1], 5.72; against Histone deacetylase 3 [2], 6.18; at Histone deacetylase 1 [3], 5.42. Also, the inhibition in assay [4] worked out at 75.9%; at Histone deacetylase 3 [5] it was 97.2%; on Histone deacetylase 1 [6] it was 88.3%; in assay [7] it was 94.2%.

`CC(C)(C)OC(=O)CC[C@@H]1N=C(c2ccccc2)c2ccccc2NC1=O`: the pIC50 (on Histone deacetylase 8; in assay [1]; against Histone deacetylase 3 [2]; on Histone deacetylase 1 [3]) was < 4.52 each time. Also, the inhibition is 1.79% in assay [4], 0% against Histone deacetylase 3 [5], 5.85% at Histone deacetylase 1 [6] and 0.01% in assay [7].

For `CC(C)(C)OC(=O)C[C@@H]1N=C(c2ccccc2)c2ccccc2N(CCCCC(=O)O)C1=O`, the pIC50 (against Histone deacetylase 8; in assay [1]; against Histone deacetylase 3 [2]; on Histone deacetylase 1 [3]) was < 4.52 throughout. The inhibition in assay [4] is 0%; on Histone deacetylase 3 [5] it was 2.62%; against Histone deacetylase 1 [6], 0%; in assay [7], 0%.

As for `O=C(O)CC[C@@H]1N=C(c2ccccc2)c2ccccc2NC1=O`, the pIC50 (against Histone deacetylase 8; in assay [1]; against Histone deacetylase 3 [2]; on Histone deacetylase 1 [3]) was < 4.52 throughout. The inhibition in assay [4] was 0%; against Histone deacetylase 3 [5], 0%; against Histone deacetylase 1 [6] it was 2.44%; in assay [7], 0%.

For the compound `O=C(CC[C@@H]1N=C(c2ccccc2)c2ccccc2NC1=O)NC(c1ccccc1)(c1ccccc1)c1ccccc1`, the pIC50 (against Histone deacetylase 8; in assay [1]; against Histone deacetylase 3 [2]; on Histone deacetylase 1 [3]) was < 4.52 throughout. For the same compound, the inhibition in assay [4] turned out to be 0%; against Histone deacetylase 3 [5] it was 0%; on Histone deacetylase 1 [6] it was 7.59%; in assay [7], 0%.

`CC(C)(C)OC(=O)NCCCC[C@@H]1N=C(c2ccccc2)c2ccccc2NC1=O`: the pIC50 (against Histone deacetylase 8; in assay [1]; against Histone deacetylase 3 [2]; on Histone deacetylase 1 [3]) was < 4.52 throughout. For the same compound, the inhibition in assay [4] turned out to be 0%; at Histone deacetylase 3 [5], 0%; against Histone deacetylase 1 [6] it was 2.97%; in assay [7], 0%.

Take `C[C@@H](OCc1ccccc1)[C@@H]1N=C(c2ccccc2)c2ccccc2N(CCCCC(=O)NO)C1=O`: the pIC50 on Histone deacetylase 8 was 4.53; in assay [1], 5.69; at Histone deacetylase 3 [2] it was 6.04; against Histone deacetylase 1 [3] it was 5.34. For the same compound, the inhibition in assay [4] was 50.1%; against Histone deacetylase 3 [5], 97.2%; against Histone deacetylase 1 [6], 82.4%; in assay [7], 98.1%.

`CC(C)(C)OC(=O)C[C@H]1N=C(c2ccccc2)c2ccccc2NC1=O`: the pIC50 (against Histone deacetylase 8; in assay [1]; against Histone deacetylase 3 [2]; against Histone deacetylase 1 [3]) was < 4.52 each time. Moreover, the inhibition in assay [4] turned out to be 0%; on Histone deacetylase 3 [5] it was 0%; at Histone deacetylase 1 [6] it was 0.37%; in assay [7] it was 0%.
